Reference: patent EP4610269A1, “UROKINASE PLASMINOGEN ACTIVATOR SURFACE RECEPTOR (UPAR) LIGANDS FOR DIAGNOSTIC OR THERAPEUTIC USE” (3B Pharmaceuticals GmbH, priority 2024, dated 2025)
Read-outs that look alike come from different tables or passages of the source. *1 amine or outer side, *2 acyl side, *3 side chain or, on linkers, in order; H or OH if unused. Where a SMILES comes first, the peptide text is derived from it. Bridges are numbered along the chain shown (N, C = ends). [ ]: non-standard residue; d: D form. The star is where a group is joined. Pro(trans-4-NH2) = O=C([C@@H]1C[C@@H](N[*:3])CN1[*:1])[*:2]; DOTA = O=C(O)CN1CCN(CC(=O)O)CCN(CC(=O)*)CCN(CC(=O)O)CC1; Hyp = O=C(O)[C@@H]1C[C@@H](O)CN1; 3Pal = N[C@@H](Cc1cccnc1)C(=O)O; Pentanoyl(4-Me) = CC(C)CCC(=O)*; Cit = NC(=O)NCCC[C@H](N)C(=O)O; Suc = O=C(CCC(=O)[*:2])[*:1]; Nva = CCC[C@H](N)C(=O)O; Pentanoyl = CCCCC(=O)*; AEEA = NCCOCCOCC(=O)O

Tests used:
[1] = Plasma stability assay (mouse plasma); format: in vitro ADME; conditions: mouse plasma (sodium citrate 3.7%), 37°C, LC-MS quantification, read-out: % intact compound remaining after 6h incubation Mouse plasma
Method in brief: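 Compound from a 0.5 mM DMSO stock was spiked into sodium-citrate human or mouse plasma and incubated at 37°C for 0 and 6 h in duplicate. After protein precipitation with internal standard, intact compound was quantified by UHPLC-Q-TOF MS (positive ESI) against matrix calibration, reported as % remaining after 6 h.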

human uPAR (uPAR-Fc) = molecular target: T1, human uPAR (uPAR-Fc) (Homo sapiens, UniProt Q03405); experiment: Surface plasmon resonance (SPR) assay, single cycle kinetics; format: binding; conditions: pKD category for uPAR SPR activity assay, uPAR-Fc on Protein A-Chip, 25°C, read-out: pKD CAT (converted)
T1 construct: comprising amino acids Leu23-Arg303 according to UniProt entry Q03405.1; purchased R&D Systems 10378-UK-100
Method in brief: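 uPAR-Fc (Leu23-Arg303 extracellular domains, human IgG1 Fc) captured on Protein A chip to ~2000 RU; single-cycle kinetics at 25°C in HEPES running buffer pH 7.4 with 0.1% DMSO. KD from double-referenced sensorgrams fitted to 1:1 Langmuir model, reported as pKD.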

T1 sequence (Q03405 23-303): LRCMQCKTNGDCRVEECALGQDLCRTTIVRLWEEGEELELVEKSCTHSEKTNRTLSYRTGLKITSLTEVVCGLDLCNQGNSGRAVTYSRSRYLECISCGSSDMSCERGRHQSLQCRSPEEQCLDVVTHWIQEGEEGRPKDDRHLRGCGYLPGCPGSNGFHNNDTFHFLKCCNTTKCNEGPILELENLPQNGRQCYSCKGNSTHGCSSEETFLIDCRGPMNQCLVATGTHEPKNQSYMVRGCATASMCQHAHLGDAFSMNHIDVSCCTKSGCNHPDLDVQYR

Row | remaining at 6 h, 9.8 µM [1] | Kd (human uPAR (uPAR-Fc)) | Kd (human uPAR (uPAR-Fc); single cycle kinetics) | Structure (SMILES)
1 | 91% | < 1.58 nM | – | CCCCC(=O)N[C@H]1CSSC[C@@H](C(N)=O)NC(=O)[C@H](CCC)NC(=O)[C@H]([C@@H](C)CC)NC(=O)[C@@H]2C[C@@H](O)CN2C(=O)[C@@H]2CCCN2C(=O)[C@H](Cc2ccccc2)NC(=O)[C@H](Cc2cccnc2)NC(=O)[C@H](CCCCNC(=O)CN2CCN(CC(=O)O)CCN(CC(=O)O)CCN(CC(=O)O)CC2)NC(=O)[C@H](CCCNC(N)=O)NC1=O [UPAR-138, Pent-[Cys-Cit-Lys(DOTA)-Mpa-Phe-Pro-Hyp-Ile-Nva-Cys]-NH2] (Pentanoyl-C[Cit]K(DOTA)[3Pal]FP[Hyp]I[Nva]C-NH2; disulfide 1-10)
2 | 71% | < 1.58 nM | – | CC[C@H](C)[C@@H]1NC(=O)[C@@H]2C[C@@H](O)CN2C(=O)[C@@H]2CCCN2C(=O)[C@H](Cc2ccccc2)NC(=O)[C@H](Cc2ccc(O)cc2)NC(=O)[C@H](CCC(N)=O)NC(=O)[C@H](CCCNC(N)=O)NC(=O)[C@@H](NC(=O)CCC(C)C)CSSC[C@@H](C(N)=O)NC(=O)[C@H](CC(C)C)NC1=O [UPAR-174, iHex-[Cys-Cit-Gln-Tyr-Phe-Pro-Hyp-Ile-Leu-Cys]-NH2] ({Pentanoyl(4-Me)}-C[Cit]QYFP[Hyp]ILC-NH2; disulfide 1-10)
3 | > 95% | < 1.58 nM | – | CC[C@H](C)[C@@H]1NC(=O)[C@@H](C)NC(=O)[C@@H]2CCCN2C(=O)[C@H](Cc2ccccc2)NC(=O)[C@H](Cc2ccc(O)cc2)NC(=O)[C@H](CCCCNC(=O)CN2CCN(CC(=O)O)CCN(CC(=O)O)CCN(CC(=O)O)CC2)NC(=O)[C@H](CCCNC(N)=O)NC(=O)[C@@H](NC(=O)[C@H](CC(C)C)NC(=O)[C@H](CC(=O)O)NC(C)=O)CSSC[C@@H](C(N)=O)NC(=O)[C@H](CC(C)C)NC1=O [UPAR-189, Ac-Asp-Leu-[Cys-Cit-Lys(DOTA)-Tyr-Phe-Pro-ala-Ile-Leu-Cys]-NH2] (Ac-DLC[Cit]K(DOTA)YFP[dA]ILC-NH2; disulfide 3-12)
4 | 90% | < 1.58 nM | – | CC[C@H](C)[C@@H]1NC(=O)[C@@H]2CCCN2C(=O)[C@@H]2CCCN2C(=O)[C@H](Cc2ccccc2)NC(=O)[C@H](Cc2ccc(O)cc2)NC(=O)[C@H](CCC(N)=O)NC(=O)[C@H](CCCNC(N)=O)NC(=O)[C@@H](NC(=O)[C@H](CC(C)C)NC(=O)COCCOCCNC(=O)CN2CCN(CC(=O)O)CCN(CC(=O)O)CCN(CC(=O)O)CC2)CSSC[C@@H](C(N)=O)NC(=O)[C@H](CC(C)C)NC1=O [UPAR-229, DOTA-O2Oc-Leu-[Cys-Cit-Gln-Tyr-Phe-Pro-Pro-Ile-Leu-Cys]-NHz] ({DOTA-AEEA}-LC[Cit]QYFPPILC-NH2; disulfide 2-11)
5 | 74% | < 1.58 nM | – | CC[C@H](C)[C@@H]1NC(=O)[C@@H](C)NC(=O)[C@@H]2CCCN2C(=O)[C@H](Cc2ccccc2)NC(=O)[C@H](Cc2ccc(O)cc2)NC(=O)[C@H](CCC(N)=O)NC(=O)[C@H](CCCNC(N)=O)NC(=O)[C@@H](NC(=O)[C@H](CC(C)C)NC(=O)COCCOCCNC(=O)CN2CCN(CC(=O)O)CCN(CC(=O)O)CCN(CC(=O)O)CC2)CSSC[C@@H](C(N)=O)NC(=O)[C@H](CC(C)C)NC1=O [UPAR-245, DOTA-O2Oc-Leu-[Cys-Cit-Gln-Tyr-Phe-Pro-ala-Ile-Leu-Cys]-NH2] ({DOTA-AEEA}-LC[Cit]QYFP[dA]ILC-NH2; disulfide 2-11)
6 | 82% | < 1.58 nM | – | CCCCC(=O)N[C@H]1CSSC[C@@H](C(N)=O)NC(=O)[C@H](CCC)NC(=O)[C@H]([C@@H](C)CC)NC(=O)[C@@H]2C[C@@H](O)CN2C(=O)[C@@H]2CCCN2C(=O)[C@H](Cc2ccccc2)NC(=O)[C@H](Cc2ccc(O)cc2)NC(=O)[C@H](CCCCNC(=O)CN2CCN(CC(=O)O)CCN(CC(=O)O)CCN(CC(=O)O)CC2)NC(=O)[C@H](CCCNC(N)=O)NC1=O [UPAR-261, Pent-[Cys-Cit-Lys(DOTA)-Tyr-Phe-Pro-Hyp-Ile-Nva-Cys]-NH2] (Pentanoyl-C[Cit]K(DOTA)YFP[Hyp]I[Nva]C-NH2; disulfide 1-10)
7 | > 95% | < 1.58 nM | – | CCC[C@H](NC(=O)CCC(=O)O)C(=O)N[C@H]1CSSC[C@@H](C(N)=O)NC(=O)[C@H](CCC)NC(=O)[C@H]([C@@H](C)CC)NC(=O)[C@@H]2C[C@@H](O)CN2C(=O)[C@@H]2CCCN2C(=O)[C@H](Cc2ccccc2)NC(=O)[C@H](Cc2ccc(O)cc2)NC(=O)[C@H](CCCCNC(=O)CN2CCN(CC(=O)O)CCN(CC(=O)O)CCN(CC(=O)O)CC2)NC(=O)[C@H](CCCNC(N)=O)NC1=O [UPAR-293, HO-Succinyl-Nva-[Cys-Cit-Lys(DOTA)-Tyr-Phe-Pro-Hyp-Ile-Nva-Cys]-NH2] (Suc-[Nva]C[Cit]K(DOTA)YFP[Hyp]I[Nva]C-NH2; disulfide 2-11)
8 | 95% | < 1.58 nM | – | CC[C@H](C)[C@@H]1NC(=O)[C@@H](CCCNC(=N)N)NC(=O)[C@@H]2CCCN2C(=O)[C@H](Cc2ccccc2)NC(=O)[C@H](Cc2ccc(O)cc2)NC(=O)[C@H](CCCCNC(=O)CN2CCN(CC(=O)O)CCN(CC(=O)O)CCN(CC(=O)O)CC2)NC(=O)[C@H](CCCNC(N)=O)NC(=O)[C@@H](NC(=O)[C@H](CC(C)C)NC(=O)[C@H](CC(=O)O)NC(C)=O)CSSC[C@@H](C(N)=O)NC(=O)[C@H](CC(C)C)NC1=O [UPAR-306, Ac-Asp-Leu-[Cys-Cit-Lys(DOTA)-Tyr-Phe-Pro-arg-Ile-Leu-Cys]-NH2] (Ac-DLC[Cit]K(DOTA)YFP[dR]ILC-NH2; disulfide 3-12)
9 | 73% | < 1.58 nM | – | CC[C@H](C)[C@@H]1NC(=O)[C@@H](C)NC(=O)[C@@H]2CCCN2C(=O)[C@H](Cc2ccccc2)NC(=O)[C@H](Cc2ccc(O)cc2)NC(=O)[C@H](CCC(N)=O)NC(=O)[C@H](CCCNC(N)=O)NC(=O)[C@@H](NC(=O)CCC(C)C)CSSC[C@@H](C(N)=O)NC(=O)[C@H](CC(C)C)NC1=O [UPAR-338, iHex-[Cys-Cit-Gln-Tyr-Phe-Pro-ala-Ile-Leu-Cys]-NH2] ({Pentanoyl(4-Me)}-C[Cit]QYFP[dA]ILC-NH2; disulfide 1-10)
10 | 78% | – | < 1.58 nM | CC[C@H](C)[C@@H]1NC(=O)[C@@H]2CCCN2C(=O)[C@@H]2CCCN2C(=O)[C@H](Cc2ccccc2)NC(=O)[C@H](Cc2ccc(O)cc2)NC(=O)[C@H](CCCCNC(=O)CN2CCN(CC(=O)O)CCN(CC(=O)O)CCN(CC(=O)O)CC2)NC(=O)[C@H](CCCNC(N)=O)NC(=O)[C@@H](NC(=O)CCC(C)C)CSSC[C@@H](C(N)=O)NC(=O)[C@H](CC(C)C)NC1=O [UPAR-382, iHex-[Cys-Cit-Lys(DOTA)-Tyr-Phe-Pro-Pro-Ile-Leu-Cys]-NHz] ({Pentanoyl(4-Me)}-C[Cit]K(DOTA)YFPPILC-NH2; disulfide 1-10)
11 | 95% | – | < 1.58 nM | CC[C@H](C)[C@@H]1NC(=O)[C@@H]2C[C@@H](NC(=O)CN3CCN(CC(=O)O)CCN(CC(=O)O)CCN(CC(=O)O)CC3)CN2C(=O)[C@@H]2CCCN2C(=O)[C@H](Cc2ccccc2)NC(=O)[C@H](Cc2ccc(O)cc2)NC(=O)[C@H](CCC(N)=O)NC(=O)[C@H](CCCNC(N)=O)NC(=O)[C@@H](NC(=O)CCC(C)C)CSSC[C@@H](C(N)=O)NC(=O)[C@H](CC(C)C)NC1=O [UPAR-389, iHex-[Cys-Cit-Gln-Tyr-Phe-Pro-Tap(DOTA)-Ile-Leu-Cys]-NH2] ({Pentanoyl(4-Me)}-C[Cit]QYFP[Pro(trans-4-NH2)](DOTA)ILC-NH2; disulfide 1-10)
12 | 87% | – | < 1.58 nM | CCCCC(=O)N[C@H]1CSSC[C@@H](C(N)=O)NC(=O)[C@H](CCC)NC(=O)[C@H]([C@@H](C)CC)NC(=O)[C@@H]2C[C@@H](O)CN2C(=O)[C@@H]2C[C@@H](O)CN2C(=O)[C@H](Cc2ccccc2)NC(=O)[C@H](Cc2ccc(O)cc2)NC(=O)[C@H](CCCCNC(=O)CN2CCN(CC(=O)O)CCN(CC(=O)O)CCN(CC(=O)O)CC2)NC(=O)[C@H](CCCNC(N)=O)NC1=O [UPAR-403, Pent-[Cys-Cit-Lys(DOTA)-Tyr-Phe-Hyp-Hyp-Ile-Nva-Cys]-NH2] (Pentanoyl-C[Cit]K(DOTA)YF[Hyp][Hyp]I[Nva]C-NH2; disulfide 1-10)
13 | 90% | – | < 1.58 nM | CC[C@H](C)[C@@H]1NC(=O)[C@@H](C)NC(=O)[C@@H]2CCCN2C(=O)[C@H](Cc2ccccc2)NC(=O)[C@H](Cc2ccc(O)cc2)NC(=O)[C@H](CC(=O)O)NC(=O)[C@H](CCCNC(N)=O)NC(=O)[C@@H](NC(=O)CCC(C)C)CSSC[C@@H](C(N)=O)NC(=O)[C@H](CC(C)C)NC1=O [UPAR-434, iHex-[Cys-Cit-Asp-Tyr-Phe-Pro-ala-Ile-Leu-Cys]-NH2] ({Pentanoyl(4-Me)}-C[Cit]DYFP[dA]ILC-NH2; disulfide 1-10)
14 | 83% | – | < 1.58 nM | CC[C@H](C)[C@@H]1NC(=O)[C@@H](C)NC(=O)[C@@H]2CCCN2C(=O)[C@H](Cc2ccccc2)NC(=O)[C@H](Cc2ccc(O)cc2)NC(=O)[C@H](CCC(N)=O)NC(=O)[C@H](CCCNC(N)=O)NC(=O)[C@@H](NC(=O)[C@H](CC(C)C)NC(=O)CN2CCN(CC(=O)O)CCN(CC(=O)O)CCN(CC(=O)O)CC2)CSSC[C@@H](C(N)=O)NC(=O)[C@H](CC(C)C)NC1=O [UPAR-441, DOTA-Leu-[Cys-Cit-Gln-Tyr-Phe-Pro-ala-Ile-Leu-Cys]-NH2] ({DOTA}-LC[Cit]QYFP[dA]ILC-NH2; disulfide 2-11)
